This is an account of results in US8710178B2, “Macrocyclic cysteine protease inhibitors and compositions thereof” (Lincoln University, priority 2006, dated 2014).

Like-named read-outs stand apart in the source and are kept apart here.

Data set [1] has as its system lambs genetically predisposed to cataracts. Nature of the data set: Cataract progression in lambs genetically predisposed to cataracts. The conditions noted are these: for cataract progression in both eyes versus placebo-treated lambs: 1% ointment (25 mg) twice daily for three months, p=0.066 (compound 9), p=0.26 (compound 8); for cataract progression, treated right eye versus left eye: 1% ointment (25 mg) twice daily to right eye for three months, slit-lamp microscope.
Description: A flock of 63 lambs genetically predisposed to cataracts were split into three equal groups. […] A placebo ointment (25 mg) was applied twice daily to the right eye of the final group of 21 lambs for three months starting when they were three to four months old.
The progression of cataracts was determined by a veterinary ophthalmologist with a slit-lamp microscope.

The target of another data set is cathepsin B (Homo sapiens, UniProt P07858). As to the kind of experiment: BODIPY-casein fluorescence-based enzyme assay, cathepsin B. Type of data set: biochemical. The conditions noted are these: BODIPY-casein substrate.
Another data set concerns the target T1, calpain II (m calpain) (Homo sapiens, UniProt P17655).
T1 sequence (P17655 1-700): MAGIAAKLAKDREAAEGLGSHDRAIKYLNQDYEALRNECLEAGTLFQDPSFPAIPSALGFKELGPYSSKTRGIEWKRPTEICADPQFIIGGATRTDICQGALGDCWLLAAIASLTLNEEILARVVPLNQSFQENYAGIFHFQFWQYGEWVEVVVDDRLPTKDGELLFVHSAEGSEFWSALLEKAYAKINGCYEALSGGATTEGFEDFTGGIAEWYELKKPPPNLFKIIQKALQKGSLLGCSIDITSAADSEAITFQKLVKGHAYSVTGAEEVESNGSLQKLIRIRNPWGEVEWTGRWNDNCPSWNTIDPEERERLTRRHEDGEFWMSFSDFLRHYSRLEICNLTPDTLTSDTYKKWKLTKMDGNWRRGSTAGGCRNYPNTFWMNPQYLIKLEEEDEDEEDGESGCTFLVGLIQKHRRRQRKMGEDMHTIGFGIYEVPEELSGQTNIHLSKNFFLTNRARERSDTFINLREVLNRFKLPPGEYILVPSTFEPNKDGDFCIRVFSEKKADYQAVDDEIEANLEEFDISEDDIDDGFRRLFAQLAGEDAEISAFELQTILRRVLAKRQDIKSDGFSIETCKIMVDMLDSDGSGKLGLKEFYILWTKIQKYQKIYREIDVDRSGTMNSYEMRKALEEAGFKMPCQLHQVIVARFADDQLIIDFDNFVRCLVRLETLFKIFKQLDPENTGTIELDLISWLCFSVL
T1 sequence (P04632 1-268 partner): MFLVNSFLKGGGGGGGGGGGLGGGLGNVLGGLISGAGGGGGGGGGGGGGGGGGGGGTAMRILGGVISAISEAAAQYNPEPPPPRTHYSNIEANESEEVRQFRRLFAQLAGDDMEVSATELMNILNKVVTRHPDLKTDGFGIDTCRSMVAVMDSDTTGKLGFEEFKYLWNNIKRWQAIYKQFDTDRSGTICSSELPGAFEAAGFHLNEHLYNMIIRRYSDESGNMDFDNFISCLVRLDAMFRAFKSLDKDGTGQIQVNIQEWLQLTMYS
As to the kind of experiment: BODIPY-casein fluorescence-based enzyme assay, calpain II / m-calpain. Type of data set: biochemical. As to conditions: BODIPY-casein substrate.

Another data set has as its target T2, calpain I (μ calpain) (Homo sapiens, UniProt P07384).
T2 sequence (P07384 1-714): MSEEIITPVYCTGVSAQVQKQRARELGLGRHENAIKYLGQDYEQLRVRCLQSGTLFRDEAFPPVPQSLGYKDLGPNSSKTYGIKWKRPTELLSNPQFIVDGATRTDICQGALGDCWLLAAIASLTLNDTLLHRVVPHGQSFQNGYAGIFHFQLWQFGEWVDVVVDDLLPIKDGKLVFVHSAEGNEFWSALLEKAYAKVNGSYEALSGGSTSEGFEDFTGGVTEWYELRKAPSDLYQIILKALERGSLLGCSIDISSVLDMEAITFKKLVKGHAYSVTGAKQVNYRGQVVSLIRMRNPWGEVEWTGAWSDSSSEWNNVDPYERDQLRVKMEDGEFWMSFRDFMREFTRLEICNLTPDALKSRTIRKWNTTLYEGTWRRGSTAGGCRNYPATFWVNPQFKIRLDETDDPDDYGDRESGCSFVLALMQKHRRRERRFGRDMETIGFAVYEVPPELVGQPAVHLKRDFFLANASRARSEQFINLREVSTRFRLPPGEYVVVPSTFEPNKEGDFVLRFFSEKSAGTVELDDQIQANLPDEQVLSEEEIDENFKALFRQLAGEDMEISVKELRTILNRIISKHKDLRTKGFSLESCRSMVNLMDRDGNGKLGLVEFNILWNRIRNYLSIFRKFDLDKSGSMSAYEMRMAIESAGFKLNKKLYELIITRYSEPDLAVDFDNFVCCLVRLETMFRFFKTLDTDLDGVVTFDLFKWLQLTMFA
T2 sequence (P04632 1-268 partner): T1 sequence (P04632 1-268 partner)
As to the kind of experiment: BODIPY-casein fluorescence-based enzyme assay, calpain I. As to conditions: BODIPY-casein substrate. In kind it is biochemical.

The next data set relates to eye of a lamb. As to the kind of experiment: Eye irritation test of ointment in a lamb. Type of data set: in vivo. The conditions noted are these: ointment (50 mg) comprising 1% of compound, one eye of a lamb, three times in one day.
The target in the next data set is T3, papain (Carica papaya, UniProt P00784).
T3 sequence (P00784 134-345): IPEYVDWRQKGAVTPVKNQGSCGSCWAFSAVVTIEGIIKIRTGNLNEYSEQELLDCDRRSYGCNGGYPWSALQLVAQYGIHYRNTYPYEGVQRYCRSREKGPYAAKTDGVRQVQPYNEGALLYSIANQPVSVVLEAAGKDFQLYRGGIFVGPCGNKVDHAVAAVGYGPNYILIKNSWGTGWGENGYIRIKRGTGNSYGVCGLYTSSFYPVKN
As to the kind of experiment: BODIPY-casein fluorescence-based enzyme assay, papain. In kind it is biochemical. As to conditions: BODIPY-casein substrate.

For a further data set, the target named is α-chymotrypsin (Bos taurus, UniProt P00766). Nature of the data set: BODIPY-casein fluorescence-based enzyme assay, α-chymotrypsin. The conditions noted are these: BODIPY-casein substrate. In kind it is biochemical.
The mark [2] stands for this setting: Table 2, read-out: IC50 calpain II (m calpain).
[3] abbreviates: Table 3, read-out: IC50 against m-calpain.

Description for calpain II (m calpain): (§1) The inhibitors were assayed against several enzymes using a BODIPY-casein substrate in the fluorescence-based assay procedure of V. F. Thompson, S. Saldana, J. Cong and D. E. Goll, Anal. Biochem. 2000, 279, 170.
A number of the compounds were assayed against m-calpain using a BODIPY-casein substrate in the fluorescence-based assay procedure of V. F. Thompson, S. Saldana, J. Cong and D. E. Goll, Anal. Biochem. 2000, 279, 170.
Description for papain: as §1

In general, IC50 refers to the concentration that gives 50% inhibition. As for `CC(C)C[C@@H]1NC(=O)[C@@H](NC(=O)OCc2ccccc2)Cc2ccc(cc2)OCCCC[C@@H](C=O)NC1=O` [Compound 9], the “cataract progression in both eyes versus placebo-treated lambs” value in data set [1] is given as “significantly slower”. Further, the “cataract progression, treated right eye versus left eye” value in data set [1] was “did not show significantly slower cataract progression”. In data set [1] (over a 12 week period, flock of lambs genetically predisposed to cataracts), the “slowing of cortical cataract progression” value was determined as 30%. For the same compound, the signs of toxicity result in data set [1] (over a 12 week period, lambs) is given as “no signs of toxicity”. Further, the IC50 is 0.07 µM at cathepsin B; 0.03 µM on calpain II (m calpain) (setting [2]); 0.03 µM at calpain II (m calpain) (setting [3]); 0.223 µM on calpain I (μ calpain); greater than 50 µM against papain; greater than 50 µM on α-chymotrypsin. For the same compound, the sign of irritation result in the data set on eye of a lamb is reported as “No sign of irritation”.

Turning to `CC(C)C[C@@H]1NC(=O)[C@@H](NC(=O)OCc2ccccc2)Cc2ccc(cc2)OCCCC[C@@H](CO)NC1=O` [Compound 8], the “cataract progression in both eyes versus placebo-treated lambs” value in data set [1] was “significantly slower”. Also, in data set [1], the “cataract progression, treated right eye versus left eye” value is “did not show significantly slower cataract progression”. Further, the IC50 on cathepsin B is 0.29 µM; at calpain II (m calpain) (setting [2]) it was 0.7 µM; on calpain II (m calpain) (setting [3]), 0.7 µM; against calpain I (μ calpain), 1.75 µM; against papain it was greater than 50 µM; at α-chymotrypsin it was greater than 50 µM.

As for `CC(C)C[C@@H]1NC(=O)[C@@H](NC(=O)OCc2ccccc2)Cc2ccc(cc2)OCCCC[C@@H](CN=[N+]=[N-])NC1=O` [Compound 79, (7S-azidomethyl-10S-isobutyl-9,12-dixoxo-2-oxa-8,11-diazabicyclo-[13.2.2]nonadeca-1(18),15(19),16-trien-13S-yl)carbamic acid benzyl ester], the IC50 on cathepsin B, on calpain II (m calpain) (setting [2]), at calpain II (m calpain) (setting [3]), against calpain I (μ calpain), against papain and against α-chymotrypsin was greater than 50 µM each time.

Consider `CC(C)C[C@@H]1NC(=O)[C@@H](NC(=O)OCc2ccccc2)Cc2ccc(cc2)OCCCCC[C@@H](CO)NC1=O` [Compound 27], for which the IC50 against cathepsin B is 1.1 µM; at calpain II (m calpain) (setting [2]), 1.1 µM; at calpain II (m calpain) (setting [3]), 1.34 µM; on calpain I (μ calpain) it was 1.34 µM; at papain it was greater than 50 µM; against α-chymotrypsin, greater than 50 µM.

Take `CC(C)C[C@@H]1NC(=O)[C@@H](NC(=O)OCc2ccccc2)Cc2ccc(cc2)OCCCCC[C@@H](C=O)NC1=O` [Compound 28]: the IC50 against cathepsin B is 0.77 µM; on calpain II (m calpain) (setting [2]) it was 0.18 µM; at calpain II (m calpain) (setting [3]) it was 0.18 µM; on calpain I (μ calpain), 0.17 µM; against papain, greater than 50 µM; against α-chymotrypsin, greater than 50 µM.

For `CC(C)C[C@@H]1NC(=O)[C@@H](NC(=O)OCc2ccccc2)Cc2ccc(cc2)OCCCC[C@@H](C(O)C#N)NC1=O` (stereo partly drawn) [Compound 80, [7-(R,S)-(cyanohydroxymethyl)-10S-isobutyl-9,12-dioxo-2-oxa-8,11-diaza-bicyclo-[13.2.2]nonadeca-1(18),15(19),16-trien-13S-yl]carbamic acid benzyl ester], the IC50 against cathepsin B was 2.4 µM; on calpain II (m calpain) (setting [2]), 8.9 µM; on calpain I (μ calpain), 35 µM; at papain, 12 µM; against α-chymotrypsin, greater than 50 µM.
